The Km is the concentration of substrate that gives half-maximal velocity.

Km data for one compound are collected here from paper PMC5943319, “Cloning and characterization of a pyrethroid pesticide decomposing esterase gene, Est3385, from Rhodopseudomonas palustris PSB-S” (Scientific Reports, 2018).

For this test, the system named is Est3385. Briefly: GC quantification of residual substrate, Michaelis-Menten. It is filed as biochemical, Rhodopseudomonas palustris. Conditions: GST fusion; substrate 10-50 µg/ml (below the Km); pH and temperature of kinetics not stated.

SMILES strings stand for the structures.

For the compound `CC1(C)C(C(=O)OC(C#N)c2cccc(Oc3ccccc3)c2)C1(C)C` (stereo not shown) [fenpropathrin], the Km is 734 ± 13 µM.
